Assay results: article PMC8391127, “Triterpenoid–PEG Ribbons Targeting Selectivity in Pharmacological Effects” (Biomedicines, 2021)
Read-outs that look alike come from different tables or passages of the source.

Tests used:
Enterococcus faecalis = assay: Antimicrobial screening, resazurine test; type: cell-based; details: for inhibition at 25 µg/mL / inhibition at 50 µg/mL / inhibition at 100 µg/mL: Enterococcus faecalis, read-out: Inhibition of the microorganism
Procedure: (§1) The resazurine test was used to evaluate this activity.
(§2) The cell inoculum was made in Mueller–Hinton broth (10 mL). Colonies of cells were inoculated from the solid medium that was cultivated for 24 h under optimum conditions. A part of the inoculum was diluted to get suspension with an optical density 0.6 to 0.9 McF. An aliquot amount (1 mL) was taken and diluted with additional volume of the medium (19 mL). The stored solutions of the tested compounds were made at a concentration c = 200 µg.mL^−1. The stored suspensions of the cells, MHB medium, solutions of the antibiotics specific for the given bacteria (vancomycin for S. aureus and E. faecalis, kanamycin for E. coli and P. aeruginosa, and tetracycline for B. cereus), and the solutions of the compounds were pipetted into the microtitration plates. Subsequently, a concentration sequence of the tested compounds was made (c = 100, 50, and 25 µg.mL^−1). The content of the microtitration plates was cultivated for 24 h under optimum conditions for the given bacteria. A solution of resazurine was made, based on a dilution of its stored solution (c = 0.15 mg.mL^−1; 2 mL) into the MHB medium (18 mL). Then, it was pipetted into the microtitration plates that were cultivated for an additional 1 h. Finally, fluorescence measurement (excitation at 560 nm, emission at 590 nm) was made, and the inhibition of the bacterium was determined.
(§3) 2. Antimicrobial screening tests
(§4) Antimicrobial activity of the target molecular ribbons 8a, 12a, 8b, 12b, 4c, 6c, 6d and 8d, and […]
(§5) aeruginosa, Staphylococcus aureus and Enterococcus faecalis. The resazurine test was used to […]
(§6) ribbons which have been achieved in this investigation.
(§7) Table S1. Antimicrobial activity, inhibition of the microorganism [%]
(§8) Comp. Staphylococcus aureus Comp. Escherichia coli […]
(§9) µg·mL-1 µg·mL-1 µg·mL-1 µg·mL-1 µg·mL-1 µg·mL-1
(§10) Comp. Bacillus cereus Comp. Pseudomonas aeruginosa

Staphylococcus aureus = assay: Antimicrobial screening, resazurine test; type: cell-based; details: Staphylococcus aureus, read-out: Inhibition of the microorganism
Procedure: as §1, §2, §3, §4, §5, §6, §7, §8, §9, §10

Escherichia coli = assay: Antimicrobial screening, resazurine test; type: cell-based; details: Escherichia coli, read-out: Inhibition of the microorganism
Procedure: as §1, §2, §3, §4, §5, §6, §7, §8, §9, §10

Bacillus cereus = assay: Antimicrobial screening, resazurine test; type: cell-based; details: for inhibition at 25 µg/mL / inhibition at 50 µg/mL / inhibition at 100 µg/mL: Bacillus cereus
Procedure: as §1, §2, §3, §4, §5, §6, §7, §8, §9, §10

Pseudomonas aeruginosa = assay: Antimicrobial screening, resazurine test; type: cell-based
Procedure: as §1, §2, §3, §4, §5, §6, §7, §8, §9, §10

[1] = Self-assembly by UV-VIS spectrometry in methanol/water mixtures; type: physicochemical; details: 0-140 h
Procedure: The self-assembly of the selected compounds 8a, 12a, 8b, 12b, 4c, 6c, 6d, and 8d was measured using UV absorption in methanol/water mixtures with a constant concentration of the studied compound for 7 days in one-hour intervals on the first day, and in 24 h intervals all following days. The stock solutions of the studied compounds were prepared at a concentration of 1 mg·mL^−1 in water. Then, a series of methanol/water mixtures were prepared starting from a methanol/water ratio 100/0 down to 0/100 in 20% steps. The stock solutions of the studied compounds (0.15 mL) were added separately to each vial containing methanol/water mixtures (3 mL), and the UV spectra were recorded in the wavelength range of 200–400 nm. […] For the compounds 8a, 12a, 12b and 6d, the details are presented in the Supplementary Material; see Figure S2.
Supramolecular self-assembly was studied on the basis of the UV-VIS spectra of the compounds in several methanol/water mixtures stepwise during the time interval 0-140 h. Here we show compounds 8a, 12a, 12b and 6d as examples, with which the irregularities in the UV-VIS spectra were either well pronounced (8a and 12a; Figure S2), or no substantial irregularity was detected (12b and 6d).
Figure S2. UV-VIS spectra of 8a (top) and 12a (bottom) measured in the interval 0-140 h.
During that time interval a new maximum appeared at 300 nm wavelength, and the shape of the curves is different than in any of the other intervals of measurement. […]

[2] = B. cereus, c = 25 µg·mL-1, read-out: Inhibition of the microorganism
[3] = B. cereus, c = 50 µg·mL-1, read-out: Inhibition of the microorganism
[4] = B. cereus, c = 100 µg·mL-1, read-out: Inhibition of the microorganism
[5] = P. aeruginosa, c = 25 µg·mL-1, read-out: Inhibition of the microorganism
[6] = P. aeruginosa, c = 50 µg·mL-1, read-out: Inhibition of the microorganism
[7] = P. aeruginosa, c = 100 µg·mL-1, read-out: Inhibition of the microorganism
[8] = read-out: Inhibition of the microorganism

Structure (SMILES)	inhibition at 25 µg/mL (Enterococcus faecalis; E. faecalis, c = 25 µg·mL-1)	inhibition at 50 µg/mL (Enterococcus faecalis; E. faecalis, c = 50 µg·mL-1)	inhibition at 100 µg/mL (Enterococcus faecalis; E. faecalis, c = 100 µg·mL-1)	inhibition at 25 µg/mL (Staphylococcus aureus; S. aureus, c = 25 µg·mL-1)	inhibition at 50 µg/mL (Staphylococcus aureus; S. aureus, c = 50 µg·mL-1)	inhibition at 100 µg/mL (Staphylococcus aureus; S. aureus, c = 100 µg·mL-1)	inhibition at 25 µg/mL (Escherichia coli; E. coli, c = 25 µg·mL-1)	inhibition at 50 µg/mL (Escherichia coli; E. coli, c = 50 µg·mL-1)	inhibition at 100 µg/mL (Escherichia coli; E. coli, c = 100 µg·mL-1)	inhibition at 25 µg/mL (Bacillus cereus; [2])	inhibition at 50 µg/mL (Bacillus cereus; [3])	inhibition at 100 µg/mL (Bacillus cereus; [4])	inhibition at 25 µg/mL (Pseudomonas aeruginosa; [5])	inhibition at 50 µg/mL (Pseudomonas aeruginosa; [6])	inhibition at 100 µg/mL (Pseudomonas aeruginosa; [7])	also measured
CC1(C)CC[C@]2(C(=O)O)CC[C@]3(C)C(=CC[C@@H]4[C@@]5(C)CC[C@H](O)C(C)(C)[C@@H]5CC[C@]43C)[C@@H]2C1 [1a, Oleanolic acid, reference compound]	> 87%	90 ± 13.5%	89 ± 13.4%	0 to 1%	8 ± 1.2%	33 ± 5%	0 to 1%	0 to 1%	0 to 1%	> 77%	77 ± 11.6%	77 ± 11.6%	0 to 1%	0 to 1%	0 to 1%	Inhibition of the microorganism (Enterococcus faecalis; E. faecalis, c = 25 µg·mL-1): 87 ± 13.0%; Inhibition of the microorganism (Bacillus cereus; B. cereus, c = 25 µg·mL-1): 76 ± 11.4%
CC1(C)C=C2[C@H]3CC[C@@H]4[C@@]5(C)CC[C@H](O)C(C)(C)[C@@H]5CC[C@@]4(C)[C@]3(C)CC[C@@]2(C(=O)O)CC1 [1b, morolic acid, reference compound]																inhibition at 25 µg/mL (Enterococcus faecalis): 38 ± 5.7%; inhibition at 50 µg/mL (Enterococcus faecalis): 64 ± 9.6%; inhibition at 100 µg/mL (Enterococcus faecalis): 69 ± 10.4%; inhibition at 25 µg/mL (Staphylococcus aureus): 21 ± 3.2%; inhibition at 50 µg/mL (Staphylococcus aureus): 17 ± 2.6%; inhibition at 100 µg/mL (Staphylococcus aureus): 47 ± 7%; inhibition at 25 µg/mL (Escherichia coli): 0 to 1%; inhibition at 50 µg/mL (Escherichia coli): 2 ± 0.3%; inhibition at 100 µg/mL (Escherichia coli): 0 to 1%; Inhibition of the microorganism (Bacillus cereus; B. cereus, c = 25 µg·mL-1): 78 ± 11.7%; inhibition at 25 µg/mL (Bacillus cereus; read-out: Inhibition of the microorganism, B. cereus, c = 25 µg·mL-1): > 77%; inhibition at 50 µg/mL (Bacillus cereus; read-out: Inhibition of the microorganism, B. cereus, c = 50 µg·mL-1): 76 ± 11.4%; inhibition at 100 µg/mL (Bacillus cereus; read-out: Inhibition of the microorganism, B. cereus, c = 100 µg·mL-1): 75 ± 11.3%; inhibition at 25 µg/mL (Pseudomonas aeruginosa; [8]): 0 to 1%; inhibition at 50 µg/mL (Pseudomonas aeruginosa; [8]): 0 to 1%; inhibition at 100 µg/mL (Pseudomonas aeruginosa; [8]): 0 to 1%
CC1(C)C=C2[C@H]3CC[C@@H]4[C@@]5(C)CCC(=O)C(C)(C)[C@@H]5CC[C@@]4(C)[C@]3(C)CC[C@@]2(C(=O)O)CC1 [1c, moronic acid, reference compound]	0 to 1%	0 to 1%	0 to 1%	0 to 1%	3 ± 0.5%	10 ± 1.5%	0 to 1%	0 to 1%	0 to 1%	0 to 1%	15 ± 2.3%	66 ± 9.9%	0 to 1%	0 to 1%	0 to 1%	
CC1(C)C=C2C3CC[C@@H]4[C@@]5(C)CC[C@H](OCc6cn(CCOCCOCCOCCNC(=O)[C@]78CCC(C)(C)C=C7C7CC[C@@H]9[C@@]%10(C)CC[C@H](O)C(C)(C)[C@@H]%10CC[C@@]9(C)[C@]7(C)CC8)nn6)C(C)(C)[C@@H]5CC[C@@]4(C)[C@]3(C)CC[C@@]2(C(=O)O)CC1 (some centres unmarked) [8b]	20 ± 3%	43 ± 6.5%	54 ± 8.1%	0 to 1%	24 ± 3.6%	77 ± 11.6%	17 ± 2.6%	25 ± 3.8%	31 ± 4.7%	16 ± 2.4%	38 ± 5.7%	0 to 1%	33 ± 5%	59 ± 8.9%	60 ± 9%	
CC1(C)CC[C@]2(C(=O)O)CC[C@]3(C)C(=CC[C@@H]4[C@@]5(C)CC[C@H](OCc6cn(CCOCCOCCOCCNC(=O)[C@]78CCC(C)(C)CC7C7=CC[C@@H]9[C@@]%10(C)CC[C@H](OCc%11cn(CCOCCOCCOCCNC(=O)[C@]%12%13CCC(C)(C)CC%12C%12=CC[C@@H]%14[C@@]%15(C)CC[C@H](O)C(C)(C)[C@@H]%15CC[C@@]%14(C)[C@]%12(C)CC%13)nn%11)C(C)(C)[C@@H]%10CC[C@@]9(C)[C@]7(C)CC8)nn6)C(C)(C)[C@@H]5CC[C@]43C)C2C1 (some centres unmarked) [12a]																Irregularity in UV-VIS spectra (self-assembly) [1]: Irregularities were detected
CC1(C)C=C2C3CC[C@@H]4[C@@]5(C)CC[C@H](OCc6cn(CCOCCOCCOCCNC(=O)[C@]78CCC(C)(C)C=C7C7CC[C@@H]9[C@@]%10(C)CC[C@H](OCc%11cn(CCOCCOCCOCCNC(=O)[C@]%12%13CCC(C)(C)C=C%12C%12CC[C@@H]%14[C@@]%15(C)CC[C@H](O)C(C)(C)[C@@H]%15CC[C@@]%14(C)[C@]%12(C)CC%13)nn%11)C(C)(C)[C@@H]%10CC[C@@]9(C)[C@]7(C)CC8)nn6)C(C)(C)[C@@H]5CC[C@@]4(C)[C@]3(C)CC[C@@]2(C(=O)O)CC1 (some centres unmarked) [12b]																Irregularity in UV-VIS spectra (self-assembly) [1]: No substantial irregularity was detected
CN(C)[C@@H]1C(O)=C(C(N)=O)C(=O)[C@@]2(O)C(O)=C3C(=O)c4c(O)cccc4[C@@](C)(O)[C@H]3C[C@@H]12 [tetracycline, reference compound]										99%						
CN[C@H](CC(C)C)C(=O)N[C@H]1C(=O)N[C@@H](CC(N)=O)C(=O)N[C@H]2C(=O)N[C@H]3C(=O)N[C@H](C(=O)N[C@H](C(=O)O)c4cc(O)cc(O)c4-c4cc3ccc4O)[C@H](O)c3ccc(c(Cl)c3)Oc3cc2cc(c3O[C@@H]2O[C@H](CO)[C@@H](O)[C@H](O)[C@H]2O[C@H]2C[C@](C)(N)[C@H](O)[C@H](C)O2)Oc2ccc(cc2Cl)[C@H]1O [vancomycin, reference compound]																inhibition at 25 µg/mL (Enterococcus faecalis): 99%; inhibition at 25 µg/mL (Staphylococcus aureus): 99%
